Results from patent US20240317735A1, “HYDROISOQUINOLINE OR HYDRONAPHTHYRIDINE COMPOUNDS FOR THE TREATMENT OF AUTOIMMUNE DISEASE” (Hoffmann-La Roche Inc., priority 2020, published 2024).

Target: T1, hERG channel (Homo sapiens, UniProt Q12809)
T1 construct: expressed in transfected cells; host or cells: CHO (CHOhERG)
Assay: hERG channel inhibition assay (patch-clamp, CHOhERG cells)
Format: cell-based
Conditions: for IC50 / IC20: CHOhERG cells, whole-cell patch-clamp; for IC20: human, CHO cells stably expressing hERG (CHOhERG); for hERG IC20/TLR7 IC50 / hERG IC20/TLR8 IC50 / hERG IC20/TLR9 IC50: safety ratio; for hERG IC20/TLR7 IC50: hERG IC20 over HEK/hTLR7 IC50; for hERG IC20/TLR8 IC50: hERG IC20 over HEK/hTLR8 IC50; for hERG IC20/TLR9 IC50: hERG IC20 over HEK/hTLR9 IC50
Procedure: The hERG K^+ channels were cloned in humans and stably expressed in a CHO (Chinese hamster ovary) cell line. CHOhERG cells were used for patch-clamp (voltage-clamp, whole-cell) experiments. Cells were stimulated by a voltage pattern to activate hERG channels and conduct IKhERG currents (rapid delayed outward rectifier potassium current of the hERG channel). After the cells were stabilized for a few minutes, the amplitude and kinetics of IKhERG were recorded at a stimulation frequency of 0.1 Hz (6 bpm). Thereafter, the test compound was added to the preparation at increasing concentrations. For each concentration, an attempt was made to reach a steady-state effect, usually, this was achieved within 3-10 min at which time the next highest concentration was applied. The amplitude and kinetics of IKhERG are recorded in each concentration of the drug which were compared to the control values (taken as 100%). (references: Redfern W S, Carlsson L, Davis A S, Lynch W G, MacKenzie I, Palethorpe S, Siegl P K, Strang I, Sullivan A T, Wallis R, Camm A J, Hammond T G. 2003; Relationships between preclinical cardiac electrophysiology, clinical QT interval prolongation and torsade de pointes for a broad range of drugs: evidence for a provisional safety margin in drug development. Cardiovasc. Res. 58:32-45, Sanguinetti MC, Tristani-Firouzi M. 2006; hERG potassium channels and cardiac arrhythmia. Nature 440:463-469, Webster R, Leishman D, Walker D. 2002; Towards a drug concentration effect relationship for QT prolongation and torsades de pointes. Curr. Opin. Drug Discov. Devel. 5:116-26).

T1 sequence (Q12809 whole entry): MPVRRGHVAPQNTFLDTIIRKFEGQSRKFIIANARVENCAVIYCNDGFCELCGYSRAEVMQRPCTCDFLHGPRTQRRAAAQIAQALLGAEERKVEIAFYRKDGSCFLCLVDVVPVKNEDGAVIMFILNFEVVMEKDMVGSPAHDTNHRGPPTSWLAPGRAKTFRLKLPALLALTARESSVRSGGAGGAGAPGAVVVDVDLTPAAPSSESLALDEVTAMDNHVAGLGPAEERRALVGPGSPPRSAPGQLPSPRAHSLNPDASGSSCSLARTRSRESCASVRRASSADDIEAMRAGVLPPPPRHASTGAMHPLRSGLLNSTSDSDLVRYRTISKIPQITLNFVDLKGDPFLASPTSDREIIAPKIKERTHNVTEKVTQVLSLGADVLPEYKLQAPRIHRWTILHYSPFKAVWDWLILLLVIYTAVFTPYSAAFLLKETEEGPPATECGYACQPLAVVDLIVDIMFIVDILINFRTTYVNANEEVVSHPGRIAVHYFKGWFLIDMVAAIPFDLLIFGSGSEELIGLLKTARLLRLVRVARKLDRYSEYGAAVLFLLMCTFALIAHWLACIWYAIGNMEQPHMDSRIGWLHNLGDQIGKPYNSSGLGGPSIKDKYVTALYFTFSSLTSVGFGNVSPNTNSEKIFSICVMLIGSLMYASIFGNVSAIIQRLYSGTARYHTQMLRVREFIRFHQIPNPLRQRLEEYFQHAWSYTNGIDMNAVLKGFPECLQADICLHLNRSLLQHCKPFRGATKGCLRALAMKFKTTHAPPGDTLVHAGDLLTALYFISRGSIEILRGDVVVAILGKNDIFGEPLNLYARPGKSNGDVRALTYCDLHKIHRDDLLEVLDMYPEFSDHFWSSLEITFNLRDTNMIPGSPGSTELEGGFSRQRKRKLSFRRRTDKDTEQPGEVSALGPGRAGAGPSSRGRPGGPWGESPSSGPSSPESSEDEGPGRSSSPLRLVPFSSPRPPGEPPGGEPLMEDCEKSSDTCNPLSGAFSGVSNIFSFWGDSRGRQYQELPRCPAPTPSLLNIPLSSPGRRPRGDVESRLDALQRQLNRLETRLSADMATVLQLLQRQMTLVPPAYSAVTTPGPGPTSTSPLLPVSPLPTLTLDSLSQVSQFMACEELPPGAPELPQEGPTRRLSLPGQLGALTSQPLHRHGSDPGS

Structure (SMILES)	IC50 [µM]	IC20 [µM]	hERG IC20/TLR7 IC50	hERG IC20/TLR8 IC50	hERG IC20/TLR9 IC50
C[C@H]1CN(c2ccnc3c2cnn3C)Cc2ccc(OCCN3CCNCC3)cc21 [Example 40, (4R)-4-methyl-2-(1-methylpyrazolo[3,4-b]pyridin-4-yl)-6-(2-piperazin-1-ylethoxy)-3,4-dihydro-1H-isoquinoline]	> 20	> 10	>1250.0	>1428.6	>30.7
C[C@H]1CN(c2ccnc3c2cnn3C)Cc2ccc(OC[C@@H]3CNCCN3C)cc21 [Example 44, (4R)-4-methyl-2-(1-methylpyrazolo[3,4-b]pyridin-4-yl)-6-[[(2S)-1-methylpiperazin-2-yl]methoxy]-3,4-dihydro-1H-isoquinoline]	> 20	> 10	>666.7	>2000.0	>42.7
Cc1cc(N2Cc3cnc(N4CC[C@@H](N)[C@H](F)C4)cc3[C@@H](C)C2)c2cnn(C)c2n1 [Example 80, (3R,4R)-3-fluoro-1-[(5R)-7-(1,6-dimethylpyrazolo[3,4-b]pyridin-4-yl)-5-methyl-6,8-dihydro-5H-2,7-naphthyridin-3-yl]piperidin-4-amine]	> 20	> 10	>833.3	>294.1	>137.0
C[C@H]1CN(c2ccnc3c2cnn3C)Cc2ccc(N3CC4(CCNCC4)CC3=O)cc21 [Example 16, 2-[(4R)-4-methyl-2-(1-methylpyrazolo[3,4-b]pyridin-4-yl)-3,4-dihydro-1H-isoquinolin-6-yl]-2,8-diazaspiro[4.5]decan-3-one]	> 20	> 10	>2000.0	>2500.0	>158.7
C[C@H]1CN(c2ccnc3c2cnn3C)Cc2ccc(N3C[C@@]4(CCNC4)CC3=O)cc21 (single isomer, unassigned) [Example 53]	> 20	> 10	>555.6	>1666.7	>47.6
C[C@H]1CN(c2ccnc3c2cnn3C)Cc2ccc(O[C@@H]3C[C@H]4CNCCN4C3)cc21 [Example 42, (4R)-4-methyl-2-(1-methylpyrazolo[3,4-b]pyridin-4-yl)-6-[[(7R,8aS)-1,2,3,4,6,7,8,8a-octahydropyrrolo[1,2-a]pyrazin-7-yl]oxy]-3,4-dihydro-1H-isoquinoline]	> 20	> 10	>3333.3	>5000.0	>25.1
C[C@H]1CN(c2ccnc3c2cnn3C)Cc2ccc(N3CC4(CNC4)CC3=O)cc21 [Example 34, 6-[(4R)-4-methyl-2-(1-methylpyrazolo[3,4-b]pyridin-4-yl)-3,4-dihydro-1H-isoquinolin-6-yl]-2,6-diazaspiro[3.4]octan-7-one]	> 20	> 10	>384.6	>384.6	>50.5
Cc1cc(N2Cc3ccc(OC[C@H]4CNCCN4)cc3[C@@H](C)C2)c2cnn(C)c2n1 [Example 30, (4R)-2-(1,6-dimethylpyrazolo[3,4-b]pyridin-4-yl)-4-methyl-6-[[(2R)-piperazin-2-yl]methoxy]-3,4-dihydro-1H-isoquinoline]	> 20	6.5	175.7	3250.0	73.9
Cc1cc(N2Cc3cnc(O[C@@H]4C[C@H]5CNCCN5C4)cc3[C@@H](C)C2)c2cnn(C)c2n1 [Example 76, (4R)-2-(1,6-dimethylpyrazolo[3,4-b]pyridin-4-yl)-4-methyl-6-[[(7R,8aS)-1,2,3,4,6,7,8,8a-octahydropyrrolo[1,2-a]pyrazin-7-yl]oxy]-3,4-dihydro-1H-2,7-naphthyridine]	> 20	> 10	>526.3	>625.0	>69.4
C[C@H]1CN(c2ccnc3c2cnn3C)Cc2ccc(N3CC4(CNCCO4)C3)cc21 [Example 21, 2-[(4R)-4-methyl-2-(1-methylpyrazolo[3,4-b]pyridin-4-yl)-3,4-dihydro-1H-isoquinolin-6-yl]-5-oxa-2,8-diazaspiro[3.5]nonane]	> 20	> 10	>1428.6	>714.3	>26.9
CO[C@@H]1CN(c2ccc3c(c2)[C@@H](C)CN(c2ccnc4c2cnn4C)C3)C[C@H]1N [Example 20, (3R,4R)-4-methoxy-1-[(4R)-4-methyl-2-(1-methylpyrazolo[3,4-b]pyridin-4-yl)-3,4-dihydro-1H-isoquinolin-6-yl]pyrrolidin-3-amine]	> 20	6.2	2066.7	364.7	25.9
C[C@H]1CN(c2ccnc3c2cnn3C)Cc2ccc(N3C[C@@H]4CNCCN4C3=O)cc21 [Example 25, (8aS)-2-[(4R)-4-methyl-2-(1-methylpyrazolo[3,4-b]pyridin-4-yl)-3,4-dihydro-1H-isoquinolin-6-yl]-1,5,6,7,8,8a-hexahydroimidazo[1,5-a]pyrazin-3-one]	> 20	> 10	>666.7	>33333.3	>34.4
Cc1cc(N2Cc3cnc(OCCN4CCNCC4)cc3[C@@H](C)C2)c2cnn(C)c2n1 [Example 77, (4R)-2-(1,6-dimethylpyrazolo[3,4-b]pyridin-4-yl)-4-methyl-6-(2-piperazin-1-ylethoxy)-3,4-dihydro-1H-2,7-naphthyridine]	> 20	> 10	>526.3	>625.0	>69.4
